Test results as given in patent publication US9867795B2, “Nitrated lipids and methods of making and using thereof” (The UAB Research Foundation, priority 2004, dated 2018).
Read-outs that look alike come from different tables or passages of the source.

Columns and labels:
hPPARγ = target: T1, hPPARγ (Homo sapiens, UniProt P37231); assay: CV-1 PPRE×3 TK-Luciferase transient transfection assay; type: cell-based; conditions: for activation of PPARγ reporter gene expression compared with vehicle control: 1 and 3 μM, CV-1 cells, PPRE reporter; for PPARγ-dependent reporter gene expression by LNO2 decay products, oxidized linoleic acid derivatives and •NO donors: PPARγ-transfected CV-1 cells, FIG. 8C
T1 construct: For assessing full-length PPAR receptors, CV-1 cells were transiently co-transfected; expressed in transfected cells; host or cells: CV-1 cells
T1 sequence (P37231 1-505): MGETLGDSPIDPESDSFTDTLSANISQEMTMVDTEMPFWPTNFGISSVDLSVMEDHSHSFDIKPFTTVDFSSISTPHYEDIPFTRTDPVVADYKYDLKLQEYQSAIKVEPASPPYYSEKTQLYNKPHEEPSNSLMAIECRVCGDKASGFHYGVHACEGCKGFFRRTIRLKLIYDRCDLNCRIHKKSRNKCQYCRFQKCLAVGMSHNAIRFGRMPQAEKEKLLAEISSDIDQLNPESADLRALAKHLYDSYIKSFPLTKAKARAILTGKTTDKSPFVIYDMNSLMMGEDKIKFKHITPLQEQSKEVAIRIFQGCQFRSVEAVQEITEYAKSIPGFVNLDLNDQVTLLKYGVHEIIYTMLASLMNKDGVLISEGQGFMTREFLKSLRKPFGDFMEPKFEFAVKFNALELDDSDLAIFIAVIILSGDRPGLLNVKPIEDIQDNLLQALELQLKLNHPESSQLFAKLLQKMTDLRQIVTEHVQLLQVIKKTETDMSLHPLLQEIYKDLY
Excerpt: Cell Transient Transfection Assay. […] Then, cells were transiently co-transfected with a plasmid containing the luciferase gene under regulation by four Gal4 DNA binding elements (UASG×4 TK-Luciferase, a gift from Dr. Ronald M. Evans), in concert with plasmids containing the ligand binding domain for the different nuclear receptors fused to the Gal4 DNA binding domain. For assessing full-length PPAR receptors, CV-1 cells were transiently co-transfected with a plasmid containing the luciferase gene under the control of three tandem PPAR response elements (PPRE) (PPRE×3 TK-Luciferase) and hPPARγ, hPPARα or hPPARδ expression plasmids, respectively. In all cases, fluorescence protein (GFP) expression plasmid was co-transfected as the control for the transfection efficiency. Twenty-four hours after the transfection, cells were cultured for another 24 hours in Optium-MEM (Invitrogen, Carlsbad, Calif.). Then, cells were treated with different compounds as indicated in figures for 24 hours in Optium-MEM. Reporter luciferase assay kits from Promega (Madison, Wis.) were used to measure the luciferase activity according to the manufacturer's instructions with a luminometer (Victor II, Perkin-Elmer). Luciferase activity was normalized by GFP units. Each condition was performed at least in triplicates in each experiment.
PPAR transient transfection assay. […] Twelve hours before transfection, the media was removed and antibiotic-free media was applied. Cells were transiently co-transfected with a plasmid containing the luciferase gene under the control of three tandem PPAR response elements (PPRE) (PPRE×3 TK-Luciferase) and PPARγ, PPARα or PPARδ expression plasmids, respectively. In all cases, fluorescence protein (GFP) expression plasmid was co-transfected as the control for transfection efficiency. Twenty-four hours after transfection, cells the returned to OptiMEM (Invitrogen, Carlsbad, Calif.) for 24 hr and then treated as indicated for another 24 hr. Reporter luciferase assay kits from Promega (Madison, Wis.) were used to measure the luciferase activity according to the manufacturer's instructions with a luminometer (Victor II, Perkin-Elmer). Luciferase activity was normalized by GFP units. Each condition was performed in triplicate in each experiment (n>3).

[1] = test system: human vascular endothelial cells and macrophages; assay: Whole Human Genome Oligo Array gene expression; type: cell-based; conditions: 24 hours; LNO2O 2.5 mM, linoleic acid 2.5 μM
Experimental: The nitroalkenes of the present invention also display regulatory actions towards the expression of genes related to inflammatory responses, cell growth, cell differentiation, cell signaling, cell death (apoptosis) and metabolism. For example, nitrolinoleate regulates gene expression in human vascular endothelial cells and macrophages. Cells were stimulated with vehicle and linoleic acid (2.5 μM, the latter two treatments as controls) and LNO2O ([…]) for 24 hours. The total RNA was purified with a Qiagen Kit and analyzed with a Whole Human Genome Oligo Array (G4112A, 41K Genes, Agilent). […] In contrast, the native (precursor) fatty acid, linoleic acid, only regulates 14 genes, with an up-regulation of 5 genes and the down-regulation of 9 genes.

Human PPARγ1 (GST-PPARγ) [2] = target: T2, Human PPARγ1 (GST-PPARγ) (Homo sapiens, UniProt P37231); conditions: read-out: previously reported Ki for PPARγ; cited from earlier work
T2 sequence (P37231 1-477 isoform P37231-2): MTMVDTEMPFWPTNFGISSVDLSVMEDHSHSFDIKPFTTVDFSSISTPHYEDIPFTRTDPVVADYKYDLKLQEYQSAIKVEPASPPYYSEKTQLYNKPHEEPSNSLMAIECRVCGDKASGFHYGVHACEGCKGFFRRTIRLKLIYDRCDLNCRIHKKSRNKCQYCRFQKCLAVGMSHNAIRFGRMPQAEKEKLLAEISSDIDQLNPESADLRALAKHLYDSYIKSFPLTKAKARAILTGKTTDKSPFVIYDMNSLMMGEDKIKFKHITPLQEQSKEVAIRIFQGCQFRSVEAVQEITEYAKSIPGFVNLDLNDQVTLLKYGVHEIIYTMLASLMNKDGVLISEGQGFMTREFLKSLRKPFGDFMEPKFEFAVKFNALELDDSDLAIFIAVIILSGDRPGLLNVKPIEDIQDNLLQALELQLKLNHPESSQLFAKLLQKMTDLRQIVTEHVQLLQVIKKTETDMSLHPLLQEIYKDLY

NF-kB pathways = assay: NF-kB pathway activity (NFkB-response element luciferase reporter, IkB degradation); type: cell-based; conditions: reporter in response to TNFa; IkB degradation in response to E. coli LPS
Human PPARγ1 (GST-PPARγ) [3] = target: T2, Human PPARγ1 (GST-PPARγ); assay: PPARγ competition binding assay ([^3H]Rosiglitazone displacement); conditions: calculated / estimated
Experimental: PPARγ Competition Binding Assay. Human PPARγ1 cDNA was inserted into pGEX from Amersham Biosciences Corp (Piscataway, N.J.) containing the gene encoding glutathione S-transferase (GST). GST-PPARγ protein induction and receptor binding was assessed as previously described (17).

CCCCCCCC/C=C\CCCCCCCCOC[C@@H](O)COP(=O)(O)O [LPA-18:1, 1-O-9-(Z)-octadecenyl-2-hydroxy-sn-glycero-3-phosphate]
activation of PPARγ reporter gene expression compared with vehicle control (hPPARγ): no significant activation

CCCCCCC=CC=CCCCCCCCC(=O)O [CLA1, Δ^9,11-conjugated linoleic acid]
activation of PPARγ reporter gene expression compared with vehicle control (hPPARγ): no significant activation

CCCCCCCCCCCCCCCC(=O)OC[C@H](COP(=O)([O-])OCC[N+](C)(C)C)OC(=O)CCCCCCCC(=O)O [azPC ester, 1-Palmitoy-2-Azelaoyl-sn-Glycero-3-Phosphocholine]
activation of PPARγ reporter gene expression compared with vehicle control (hPPARγ): no significant activation

CCCCC/C=C\C=C\C(=O)CCCCCCCC(=O)O [9-oxoODE]
PPARγ-dependent reporter gene expression by LNO2 decay products, oxidized linoleic acid derivatives and •NO donors (hPPARγ): modest PPARγ activation

CCCCCC=CC=CCCCCCCCCC(=O)O [CLA2, Δ^10,12-conjugated linoleic acid]
activation of PPARγ reporter gene expression compared with vehicle control (hPPARγ): no significant activation

CCCCCCCCCCCCCCCCOC[C@H](COP(=O)([O-])OCC[N+](C)(C)C)OC(=O)CCCCCCCC(=O)O [azPC, 1-O-hexadecyl-2-azelaoyl-sn-glycero-3-phosphocholine]
activation of PPARγ reporter gene expression compared with vehicle control (hPPARγ): no significant activation

CCCCC/C=C\C/C=C\CCCCCCCC(=O)O [linoleic acid, reference compound]
number of genes down-regulated [1]: 9 genes | number of genes regulated [1]: 14 genes | number of genes up-regulated [1]: 5 genes | Ki (Human PPARγ1 (GST-PPARγ) [2]): 1.7 to 17 µM | activation of PPARγ reporter gene expression compared with vehicle control (hPPARγ): no significant activation | expression of adipocyte markers (PPARγ2 and aP2) (3T3-L1 preadipocytes; immunoblot of cell lysate): not detected | activity of NF-kB pathways (NF-kB pathways): not | Ki (Human PPARγ1 (GST-PPARγ) [3]): > 1 µM

CCCCCCCCC=CCCCCCCCC(=O)O [oleic acid, 9-Octadecenoic acid, reference compound]
adipogenesis / adipocyte differentiation (morphology, oil red O) (3T3-L1 preadipocytes; two weeks, Rosiglitazone 3 μM, linoleic acid 10 μM, oleic acid 3 μM): did not induce adipogenesis

CCCCCC(=O)/C=C/C=C\CCCCCCCC(=O)O [13-oxoODE]
PPARγ-dependent reporter gene expression by LNO2 decay products, oxidized linoleic acid derivatives and •NO donors (hPPARγ): no effect
